Calls of active or inactive are those of the source. The rule behind the calls is not given here.
How the values were obtained:
Oryctolagus cuniculus [1] = species on record: Oryctolagus cuniculus; assay: Inhibition of cotranslational processing of human PDGFRalpha in rabbit reticulocyte assessed as [35S-methionine] incorporation using canine pancreatic microsomal membranes by SDS-PAGE analysis; assay type: functional, microsomes; conditions: Microsome
HCT-116 = assay: Antitumor activity against human HCT116 cells xenografted in nu/nu mouse model at 0.25 mg/kg, ip dosed daily for over 2 weeks; assay type: functional, organism-based; design: dose 0.25 mg/kg
Mus musculus [2] = assay: Toxicity in human HCT116 cells xenografted nu/nu mouse assessed as body weight loss at > 0.375 mg/kg, ip; assay type: organism-based, HCT-116; design: dose 0.375 mg/kg, route intraperitoneal; conditions: in vivo
Mus musculus [3] = assay: Toxicity in human HCT116 cells xenografted nu/nu mouse assessed as mortality at > 0.375 mg/kg, ip; assay type: organism-based, HCT-116; design: dose 0.375 mg/kg, route intraperitoneal; conditions: in vivo
Oryctolagus cuniculus [4] = species on record: Oryctolagus cuniculus; assay: Inhibition of cotranslational processing of in rabbit reticulocyte assessed as [35S-methionine] incorporation using canine pancreatic microsomal membranes by SDS-PAGE analysis; assay type: functional, microsomes; conditions: Microsome
Mus musculus [5] = assay: Irreversible toxicity in human HCT116 cells xenografted nu/nu mouse at > 0.375 mg/kg, ip measured post compound withdrawal; assay type: organism-based, HCT-116; design: dose 0.375 mg/kg, route intraperitoneal; conditions: in vivo
Mus musculus [6] = assay: Toxicity in human HCT116 cells xenografted nu/nu mouse assessed as body weight loss at > 0.375 mg/kg, ip measured post compound withdrawal; assay type: organism-based, HCT-116; design: dose 0.375 mg/kg, route intraperitoneal; conditions: in vivo
Mus musculus [7] = assay: Toxicity in human HCT116 cells xenografted nu/nu mouse assessed as mortality at > 0.375 mg/kg, ip measured post compound withdrawal; assay type: organism-based, HCT-116; design: dose 0.375 mg/kg, route intraperitoneal; conditions: in vivo
Mus musculus [8] = assay: Toxicity in human HCT116 cells xenografted nu/nu mouse assessed as weight loss at 0.25 mg/kg, ip dosed daily for over 2 weeks; assay type: organism-based, HCT-116; design: dose 0.25 mg/kg, route intraperitoneal; conditions: in vivo, 336 h
Mus musculus [9] = assay: Toxicity in human HCT116 cells xenografted nu/nu mouse assessed as kidney histology changes at 0.25 mg/kg, ip dosed daily for over 2 weeks; assay type: organism-based, HCT-116; design: dose 0.25 mg/kg, route intraperitoneal; conditions: in vivo, 336 h
Mus musculus [10] = assay: Toxicity in human HCT116 cells xenografted nu/nu mouse assessed as liver histology changes at 0.25 mg/kg, ip dosed daily for over 2 weeks; assay type: organism-based, HCT-116; design: dose 0.25 mg/kg, route intraperitoneal; conditions: in vivo, 336 h
Mus musculus [11] = assay: Reduction in PDGFRbeta level in tumor of human HCT116 cells xenografted in nu/nu mouse at 0.25 mg/kg, ip dosed daily for over 2 weeks by Western blot; assay type: functional, organism-based; design: dose 0.25 mg/kg; conditions: HCT-116
Mus musculus [12] = assay: Reduction in VEGFR2 level in tumor of human HCT116 cells xenografted in nu/nu mouse at 0.25 mg/kg, ip dosed daily for over 2 weeks by Western blot; assay type: functional, organism-based; design: dose 0.25 mg/kg; conditions: HCT-116
Mus musculus [13] = assay: Reduction in VEGFR2 level in liver of human HCT116 cells xenografted in nu/nu mouse at 0.25 mg/kg, ip dosed daily for over 2 weeks by Western blot; assay type: functional, organism-based; design: dose 0.25 mg/kg; conditions: HCT-116
[14] = biological target: Hepatocyte growth factor receptor (Homo sapiens) (UniProt P08581); assay: Inhibition of Met expressed human HCT116 cells by immunoblotting assay; assay type: cell-based; conditions: HCT-116
Hepatocyte growth factor receptor (Homo sapiens), sequence (P08581 whole entry): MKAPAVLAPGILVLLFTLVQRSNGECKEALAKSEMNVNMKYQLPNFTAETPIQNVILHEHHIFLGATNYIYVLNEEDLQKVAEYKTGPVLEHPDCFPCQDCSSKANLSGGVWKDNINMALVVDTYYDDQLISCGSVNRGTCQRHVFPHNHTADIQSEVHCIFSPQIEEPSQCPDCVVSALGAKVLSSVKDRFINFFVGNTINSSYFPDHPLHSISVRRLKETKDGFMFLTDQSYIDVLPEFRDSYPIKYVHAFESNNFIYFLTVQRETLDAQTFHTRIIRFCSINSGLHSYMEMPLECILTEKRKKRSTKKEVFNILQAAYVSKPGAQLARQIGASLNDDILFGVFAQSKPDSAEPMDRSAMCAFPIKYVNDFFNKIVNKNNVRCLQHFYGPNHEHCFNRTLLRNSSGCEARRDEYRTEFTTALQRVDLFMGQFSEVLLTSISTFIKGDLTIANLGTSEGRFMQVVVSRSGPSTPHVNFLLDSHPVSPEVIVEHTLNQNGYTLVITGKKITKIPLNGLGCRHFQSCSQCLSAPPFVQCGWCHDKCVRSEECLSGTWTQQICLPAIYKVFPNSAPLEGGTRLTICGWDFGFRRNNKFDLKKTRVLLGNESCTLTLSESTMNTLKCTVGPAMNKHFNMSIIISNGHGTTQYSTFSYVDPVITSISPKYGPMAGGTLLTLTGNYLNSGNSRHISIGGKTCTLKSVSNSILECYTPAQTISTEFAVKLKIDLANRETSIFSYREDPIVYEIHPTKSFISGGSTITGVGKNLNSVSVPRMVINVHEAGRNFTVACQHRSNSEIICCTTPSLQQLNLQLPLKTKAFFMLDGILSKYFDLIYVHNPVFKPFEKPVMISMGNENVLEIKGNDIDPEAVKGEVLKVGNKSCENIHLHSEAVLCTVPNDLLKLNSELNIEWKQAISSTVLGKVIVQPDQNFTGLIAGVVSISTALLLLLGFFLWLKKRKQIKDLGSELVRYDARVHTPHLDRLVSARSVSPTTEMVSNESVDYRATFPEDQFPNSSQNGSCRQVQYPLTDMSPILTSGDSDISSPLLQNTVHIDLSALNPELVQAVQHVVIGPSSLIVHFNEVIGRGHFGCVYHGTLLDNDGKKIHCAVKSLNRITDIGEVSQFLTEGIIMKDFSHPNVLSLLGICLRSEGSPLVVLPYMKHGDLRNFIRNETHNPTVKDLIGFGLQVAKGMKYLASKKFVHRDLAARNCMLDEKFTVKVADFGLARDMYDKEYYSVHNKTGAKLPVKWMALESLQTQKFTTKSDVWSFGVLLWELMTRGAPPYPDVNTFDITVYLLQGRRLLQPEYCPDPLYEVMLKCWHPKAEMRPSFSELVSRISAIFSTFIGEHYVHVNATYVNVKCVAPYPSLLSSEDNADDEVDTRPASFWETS

Compound: CC[C@H](C)[C@H]1C(=O)N2CCC[C@H]2C(=O)O[C@H](C(C)(C)C)C[C@@H](C)C[C@H](O)[C@H](C)C2=N[C@@H](CCC(=O)N[C@@H](Cc3ccc(OC)cc3)C(=O)N(C)[C@@H](C)C(=O)N1C)CS2 [APRATOXIN S4]
- inhibition (Oryctolagus cuniculus [1]): Active
- Activity (HCT-116): Active
- Activity (Mus musculus [2]): Non-toxic
- Activity (Mus musculus [3]): Non-toxic
- inhibition (Oryctolagus cuniculus [4]): Dose-dependent effect
- Activity (Mus musculus [5]): Non-toxic
- Activity (Mus musculus [6]): Non-toxic
- Activity (Mus musculus [7]): Non-toxic
- Activity (Mus musculus [8]): Non-toxic
- Activity (Mus musculus [9]): Non-toxic
- Activity (Mus musculus [10]): Non-toxic
- Activity (Mus musculus [11]): Active
- Activity (Mus musculus [12]): Active
- Activity (Mus musculus [13]): inactive

Compound: CC[C@H](C)[C@H]1C(=O)N(C)[C@@H](C)C(=O)O[C@H](C(C)(C)C)C[C@@H](C)C[C@H](O)[C@H](C)C2=N[C@@H](/C=C(\C)C(=O)N[C@@H](Cc3ccc(OC)cc3)C(=O)N(C)[C@@H](C)C(=O)N1C)CS2
- inhibition [14]: Active

Compound: COc1ccc(C[C@@H]2NC(=O)/C(C)=C/[C@H]3CSC(=N3)[C@@H](C)[C@@H](O)C[C@H](C)C[C@@H](C(C)(C)C)OC(=O)[C@@H]3CCCN3C(=O)[C@H](C)N(C)C(=O)[C@H](C)N(C)C2=O)cc1
- inhibition [14]: inactive

Compound: CC[C@H](C)[C@H]1C(=O)N2CCC[C@H]2C(=O)O[C@H](C(C)(C)C)C[C@@H](C)C[C@H](O)[C@H](C)C2=N[C@@H](/C=C(\C)C(=O)N[C@@H](C)C(=O)N(C)[C@@H](C)C(=O)N1C)CS2
- inhibition [14]: inactive

From ChEMBL document CHEMBL2021867, “Systematic Chemical Mutagenesis Identifies a Potent Novel Apratoxin A/E Hybrid with Improved in Vivo Antitumor Activity” (ACS Med Chem Lett, 2011)
